Source: ChEMBL document CHEMBL3112510, “Optimization, pharmacophore modeling and 3D-QSAR studies of sipholanes as breast cancer migration and proliferation inhibitors” (Eur J Med Chem, 2014)

Tests used:
MDA-MB-231 [1] = test: Antimigratory activity in human MDA-MB-231 cells after 24 hrs by wound healing assay; conditions: MDA-MB-231, 24 h
MDA-MB-231 [2] = test: Antiproliferative activity against human MDA-MB-231 cells after 72 hrs by MTT assay; conditions: MDA-MB-231, 72 h
MCF7 = test: cells; conditions: Homo sapiens, MCF7, 72 h

Row | SMILES | IC50 (MDA-MB-231 [1]) [µM] | IC50 (MDA-MB-231 [1]; read-out: pIC50 (converted)) [µM] | IC50 (MDA-MB-231 [2]) [µM] | IC50 (MCF7) [µM]
1 | CC1=CC[C@H]2[C@H](CC[C@]2(C)O)C(C)(C)[C@@H]1CC[C@H]1[C@]2(C)CC[C@H](OC(=O)NCc3ccccc3)C(C)(C)O[C@H]2CC[C@@]1(C)O | 13.9 | 13.9 | 40.3 | 24.5
2 | CC1=CC[C@H]2[C@@H]1CC=C(C)[C@@H](CC[C@H]1[C@]3(C)CC[C@H](OC(=O)c4ccncc4)C(C)(C)O[C@H]3CC[C@@]1(C)O)C2(C)C | 9.5 | 9.51 | 19.1 | > 50
3 | CC(=O)O[C@H]1CC[C@]2(C)[C@H](CC[C@@](C)(O)[C@H]2CC[C@@H]2C(C)=CC[C@H]3[C@H](CC[C@]3(C)OC(C)=O)C2(C)C)OC1(C)C | 20.3 | 20.3 | 26.2 | 39.2
4 | CC1=CC[C@H]2[C@H](CC[C@]2(C)O)C(C)(C)[C@@H]1CC[C@@H]1[C@](C)(O)[C@H](O)C[C@@H]2OC(C)(C)[C@@H](O)CC[C@]21C | > 50 | 22.4 | > 50 | > 50
5 | C=C(C)C(CC[C@@]1(C)C(CC[C@H]2[C@]3(C)CC[C@H](O)C(C)(C)O[C@H]3CC[C@@]2(C)O)=C(C)CC[C@H]1O)OO (stereo not given in full) [SIPHONELLINOL E] | 39 | 39 | > 50 | 31.2
6 | C[C@H]1C(=O)C[C@@H]2[C@@](C)(O)CC[C@]2(O)C(C)(C)[C@@H]1CC[C@H]1[C@]2(C)CCC(=O)C(C)(C)O[C@H]2CC[C@@]1(C)O | 38.3 | 38.3 | > 50 | > 50
7 | CC1(C)O[C@H]2CC[C@@](C)(O)[C@@H](CC[C@@H]3C(C=O)=CC[C@H]4[C@H](CC[C@]4(C)O)C3(C)C)[C@]2(C)CC[C@@H]1O | > 50 | 51.2 | > 50 | > 50
8 | CC1=CC[C@H]2[C@H](CC[C@]2(C)O)C(C)(C)[C@@H]1CC[C@H]1[C@]2(C)CC[C@H](OC(=O)c3ccc(C)cc3)C(C)(C)O[C@H]2CC[C@@]1(C)O | 11.8 | 11.8 | 33.4 | > 50
9 | C[C@@H]1CC[C@H]2[C@@H](/C1=C/C[C@H]1[C@]3(C)CCC(=O)C(C)(C)O[C@H]3CC[C@@]1(C)O)C(C)(C)CC[C@]2(C)O | 28 | 28 | > 50 | > 50
10 | CC1=CC[C@H]2[C@H](CC[C@]2(C)O)C(C)(C)[C@@H]1CC[C@H]1[C@]2(C)CC[C@H](OC(=O)c3ccc(Cl)cc3)C(C)(C)O[C@H]2CC[C@@]1(C)O | 5.3 | 5.3 | 10.3 | 24.1
11 | CC1(C)CC[C@](C)(O)[C@H]2C[C@H](O)[C@]3(C)O[C@]3(CC[C@H]3[C@]4(C)CC[C@H](O)C(C)(C)O[C@H]4CC[C@@]3(C)O)[C@H]21 | > 50 | 92.9 | > 50 | > 50
12 | CC1=CC[C@H]2[C@@H]1CC=C(C)[C@@H](CC[C@H]1[C@]3(C)CC[C@H](OC(=O)c4ccccc4)C(C)(C)O[C@H]3CC[C@@]1(C)O)C2(C)C | 7.2 | 7.19 | 18.4 | 23.1
13 | CC(C)=CCC[C@@]1(C)C(CC[C@H]2[C@]3(C)CC[C@H](O)C(C)(C)O[C@H]3CC[C@@]2(C)O)=C(C)CC[C@H]1O [SIPHONELLINOL D] | > 50 | 67.3 | > 50 | > 50
14 | CC1=CC[C@H]2[C@H](CC[C@]2(C)O)C(C)(C)[C@@H]1CC[C@H]1[C@]2(C)CC/C(=N/OCc3ccccc3)C(C)(C)O[C@H]2CC[C@@]1(C)O | 31.4 | 31.4 | 38.2 | > 50
15 | CC1(C)O[C@H]2CC[C@@](C)(O)[C@@H](CC[C@H]3C(C)(C)[C@@]4(O)CC[C@](C)(O)[C@H]4C[C@H]4O[C@]43C)[C@]2(C)CCC1=O | 33 | 33 | > 50 | > 50
16 | CC1=CCC2C(CC[C@@]2(C)O)C(C)(C)C1CC[C@@H]1[C@@]2(C)CC[C@@H](O)C(C)(C)O[C@@H]2CC[C@]1(C)O (stereo not given in full) [SIPHOLENOL A] | 37.5 | 37.5 | > 50 | 44.5
17 | CC1(C)O[C@H]2CC[C@@](C)(O)[C@@H](CC[C@H]3C(C)(C)[C@@]4(O)CC[C@](C)(O)[C@H]4C[C@H]4O[C@]43C)[C@]2(C)CC[C@@H]1O | > 50 | 36.2 | > 50 | > 50
18 | CC1=CC[C@H]2[C@@H]1CC=C(C)[C@@H](CC[C@H]1[C@]3(C)CC[C@H](OC(=O)c4ccc(C)cc4)C(C)(C)O[C@H]3CC[C@@]1(C)O)C2(C)C | 12.3 | 12.3 | 32.7 | > 50
19 | CC1(C)O[C@H]2CC[C@@](C)(O)[C@@H](CC[C@@H]3C(CO)=CC[C@H]4[C@H](CC[C@]4(C)O)C3(C)C)[C@]2(C)CC[C@@H]1O | > 50 | 87.5 | > 50 | > 50

Row | SMILES | IC50 (MDA-MB-231 [1]) [µM] | IC50 (MDA-MB-231 [1]; read-out: pIC50 (converted)) [µM] | IC50 (MDA-MB-231 [2]) [µM] | IC50 (MCF7) [µM]
20 | CC1=CC[C@H]2[C@H](CC[C@]2(C)O)C(C)(C)[C@@H]1CC[C@H]1[C@]2(C)CC[C@H](OCc3ccccc3)C(C)(C)O[C@H]2CC[C@@]1(C)O | 12.2 | 12.2 | 29.1 | > 50
21 | CC1=CC[C@H]2[C@@H]1CC=C(C)[C@@H](CC[C@H]1[C@]3(C)CC[C@H](OC(=O)CCC(=O)O)C(C)(C)O[C@H]3CC[C@@]1(C)O)C2(C)C | 21 |  | 29.6 | > 50
22 | CC1(C)O[C@H]2CC[C@@](C)(O)[C@@H](CC[C@@H]3C(C=O)=CC[C@H]4[C@H](CC[C@]4(C)O)C3(C)C)[C@]2(C)CCC1=O | 42.6 | 42.6 | > 50 | > 50
23 | CC(=O)O[C@H]1CC[C@]2(C)[C@H](CC[C@@](C)(O)[C@H]2CC[C@@H]2C(C)=CC[C@H]3[C@H](CC[C@]3(C)O)C2(C)C)OC1(C)C | 16.8 |  | 38 | 47.9
24 | CC1=C(CC[C@H]2[C@]3(C)CC[C@H](O)C(C)(C)O[C@H]3CC[C@@]2(C)O)[C@@H]2[C@H](C[C@H]1C(=O)O)[C@@](C)(O)CCC2(C)C | 45 | 45 | > 50 | 39.8
25 | C[C@@H]1C(=O)C[C@H]2[C@@H](/C1=C/C[C@H]1[C@]3(C)CC[C@H](O)C(C)(C)O[C@H]3CC[C@@]1(C)O)C(C)(C)CC[C@]2(C)O | > 50 | 69 | > 50 | > 50
26 | CC1=CC[C@H]2[C@H](CC[C@]2(C)O)C(C)(C)[C@@H]1CC[C@H]1[C@]2(C)CC[C@H](OC(=O)c3ccncc3)C(C)(C)O[C@H]2CC[C@@]1(C)O | 10.6 | 10.6 | 18 | 25.3
27 | CC1(C)O[C@H]2CC[C@@](C)(O)[C@@H](CC[C@@H]3C(CO)=CC[C@H]4[C@H](CC[C@]4(C)O)C3(C)C)[C@]2(C)CCC1=O | > 50 | 77.8 | > 50 | > 50
28 | CC1=CC[C@H]2[C@H](CC[C@]2(C)O)C(C)(C)[C@@H]1CC[C@H]1[C@]2(C)CC[C@@H](O)O[C@H]2CC[C@@]1(C)O | 48 | 48 | > 50 | > 50
29 | CC1=C(CC[C@H]2[C@]3(C)CC[C@H](O)C(C)(C)O[C@H]3CC[C@@]2(C)O)[C@@H]2[C@H](CC1=O)[C@@](C)(O)CCC2(C)C | > 50 | 84.9 | > 50 | > 50
30 | CC1=CC[C@H]2[C@H](CC[C@]2(C)O)C(C)(C)[C@@H]1CC[C@H]1[C@]2(C)CC/C(=N/O)C(C)(C)O[C@H]2CC[C@@]1(C)O | > 50 | 52.7 | 42.7 | 46.8
31 | CC1=CC[C@H]2[C@@H]1CC=C(C)[C@@H](CC[C@H]1[C@]3(C)CC[C@H](OCc4ccccc4)C(C)(C)O[C@H]3CC[C@@]1(C)O)C2(C)C | 13.4 | 13.4 | 35.7 | > 50
32 | CC1=C(CC[C@H]2[C@]3(C)CC[C@H](O)C(C)(C)O[C@H]3CC[C@@]2(C)O)[C@](C)(C/C=C/C(C)(C)OO)[C@H](O)CC1 | > 50 | 54 | > 50 | 27.4
33 | C[C@H]1C(=O)C[C@H]2[C@H](CC[C@]2(C)O)C(C)(C)[C@@H]1CC[C@H]1[C@]2(C)CC[C@H](O)C(C)(C)O[C@H]2CC[C@@]1(C)O | 47.5 | 47.5 | > 50 | > 50
34 | CC(=O)O[C@H]1CC[C@]2(C)[C@H](CC[C@@](C)(O)[C@H]2CC[C@@H]2C(C)=CC[C@@H]3C(C)=CC[C@@H]3C2(C)C)OC1(C)C | 16 | 16 | 39.2 | 43.5
35 | CC1=CC[C@H]2[C@H](CC[C@]2(C)O)C(C)(C)[C@@H]1CC[C@H]1[C@]2(C)CC[C@H](OC(=O)NS(=O)(=O)c3ccc(C)cc3)C(C)(C)O[C@H]2CC[C@@]1(C)O | 18 |  | 47.1 | > 50
36 | CC1=CC[C@H]2[C@@H]([C@@H]1CC[C@H]1[C@]3(C)CC[C@H](O)C(C)(C)O[C@H]3CC[C@@]1(C)O)C(C)(C)CC[C@]2(C)O | 42 | 42 | > 50 | > 50
37 | CC1=CC[C@H]2[C@H](CC[C@]2(C)O)C(C)(C)[C@@H]1CC[C@H]1[C@]2(C)CC[C@H](OC(=O)CCC(=O)O)C(C)(C)O[C@H]2CC[C@@]1(C)O | 18 | 18 | 27.9 | > 50
